Patent publication US20250170112A1, “ADENOSINE LIGANDS FOR THE TREATMENT OF NEUROLOGICAL DISORDERS” (Lucy Therapeutics, Inc., priority 2022, published 2025)
pEC50: −log10 of the molar value.

Assays:
human A2B = biological target: T1, human A2B (Homo sapiens, UniProt P29275); assay: cAMP HTRF assay for Gs coupled receptor, agonist test; type: cell-based; details: agonist activity; HEK293 cells expressing recombinant human A2B; read-out: A2BAR EC50
T1 construct: expressed in transfected cells; host or cells: HEK293
T1 sequence (P29275 1-332): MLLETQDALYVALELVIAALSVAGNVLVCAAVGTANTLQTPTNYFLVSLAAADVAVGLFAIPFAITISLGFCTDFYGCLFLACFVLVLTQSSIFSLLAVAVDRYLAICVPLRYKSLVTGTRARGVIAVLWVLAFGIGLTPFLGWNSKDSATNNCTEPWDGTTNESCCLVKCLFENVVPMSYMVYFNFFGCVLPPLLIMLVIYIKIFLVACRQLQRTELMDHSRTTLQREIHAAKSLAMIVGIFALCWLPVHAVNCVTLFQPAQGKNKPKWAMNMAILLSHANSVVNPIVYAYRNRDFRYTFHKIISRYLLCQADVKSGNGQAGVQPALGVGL
Protocol: (§1) SPA ^35S-GTPγS experiments were conducted with Epics Therapeutics membrane preparations. cAMP HTRF assays were conducted with recombinant cell lines.
Dose response curves are performed in parallel with the reference compounds.
For agonist test (96 well): 12 μL of cells are mixed with 12 μL of the test compound at increasing concentrations and then incubated 30 min at room temperature. After addition of the lysis buffer containing cAMP-d2 and anti-cAMP cryptate detection reagents, plates are incubated 1 hour incubation at room temperature, and fluorescence ratios are measured according to the manufacturer specification, with the HTRF kit.

[1] = biological target: T2, human Adenosine A1 receptor (Homo sapiens, UniProt P30542); assay: GTPγS scintillation proximity assay, agonist testing; type: biochemical; details: agonist activity; membrane extracts of CHO-K1 cells expressing recombinant human A1; read-out: A1AR EC50
T2 construct: host or cells: CHO-K1
T2 sequence (P30542 1-326): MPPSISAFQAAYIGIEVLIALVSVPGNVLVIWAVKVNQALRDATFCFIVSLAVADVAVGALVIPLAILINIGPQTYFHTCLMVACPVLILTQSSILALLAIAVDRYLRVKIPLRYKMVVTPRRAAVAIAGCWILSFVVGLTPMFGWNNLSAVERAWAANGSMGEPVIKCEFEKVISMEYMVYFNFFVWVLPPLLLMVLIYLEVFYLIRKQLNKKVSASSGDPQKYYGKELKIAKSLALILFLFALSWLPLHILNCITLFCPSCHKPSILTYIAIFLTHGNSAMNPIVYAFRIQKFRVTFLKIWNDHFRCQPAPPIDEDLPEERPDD
Protocol: as §1
• Assay buffer: 20 mM HEPES pH 7.4; 100 mM NaCl, 10 μg/mL saponin, MgCl2 at optimized concentration for the specific receptor. • Membranes: membrane extracts prepared from CHO-K1 cells expressing recombinant human Adenosine A1 receptor, thawed on ice, diluted in assay buffer and kept on ice. • GDP: diluted in assay buffer at the optimized concentration for the specific receptor Beads: PVT-WGA (Perkin Elmer, RPNQ001), diluted in assay buffer at 50 mg/mL (0.5 mg/10 μL) • GTPγ^35S: (Perkin Elmer, NEG030X), diluted in assay buffer for a final 0.1 nM assay concentration
Protocol for agonist testing: membranes are mixed with GDP (volume:volume). In parallel, GTPγ[^35S] is mixed with the beads (volume:volume) just before starting the reaction. The following reagents are successively added in the wells of an Optiplate (Perkin Elmer): 50 μL of test or reference ligand, 25 μL of the membranes:GDP mix, and 25 μL of the GTPγ[^35S]:beads mix. The plates are covered with a top seal, mixed on an orbital shaker for 2 min, and then incubated for 1 hour at room temperature. Then the plates are centrifuged for 10 min at 2000 rpm, incubated at room temperature and counted for 30 sec/well with a PerkinElmer TopCount™ reader. • Conditions for the GTPγS scintillation proximity assay are shown in Table 14.

Compound	pEC50 (human A2B)	pEC50 [1]
CC(C)(O)COc1ccc(-c2c(C#N)c(N)nc(SCc3cccnc3)c2C#N)cc1 [Compound 51]	8.29	7.42
N#Cc1c(N)nc(SCC2CCCO2)c(C#N)c1-c1ccc(OCCO)cc1 (centres unmarked) [Compound 141]	6.83	6.24
COCCOc1ccc(-c2c(C#N)c(SCc3cccnc3)nc(N3CCC3)c2C#N)cc1 [Compound 115]	< 5.00	7.51
N#Cc1c(SCc2cccnc2)nc(N2CC(F)(F)C2)c(C#N)c1-c1ccc(OC2COC2)cc1 [Compound 272]	6.51	7.66
CN(C)c1nc(SCc2cccnc2)c(C#N)c(-c2ccc(OCCOC(F)F)cc2)c1C#N [Compound 253]	< 5.00	< 5.00
COCCOc1ccc(-c2c(C#N)c(N)nc(SCc3nccc4[nH]ccc34)c2C#N)cc1 [Compound 217]	< 5.00	< 5.00
N#Cc1c(N)nc(SCC2(F)COC2)c(C#N)c1-c1ccc(OC2COC2)cc1 [Compound 227]	< 5.00	6.49
N#Cc1c(N)nc(SCc2cccnc2)c(C#N)c1-c1ccc(OC(F)(F)CO)cc1 [Compound 309]	9.02	8.19
N#Cc1c(N)nc(OC[C@H]2CCOC2)c(C#N)c1-c1ccc(OC2COC2)cc1 [Compound 290]	< 5.00	6.58
N#Cc1c(SCc2cccnc2)nc(N2CC(F)C2)c(C#N)c1-c1ccc(OCCOC(F)F)cc1 [Compound 266]	< 5.00	5.97
COCCOc1ccc(-c2c(C#N)cnc(SCCO)c2C#N)cc1 [Compound 94]	< 5.00	6.00
N#Cc1c(N)nc(SCc2ccccc2)c(C#N)c1-c1ccc(OCCO)cc1 [Compound 150]	8.38	7.92
COCCOc1ccc(-c2c(C#N)c(N)nc(S[C@H](C)c3cccnc3)c2C#N)cc1 [Compound 248]	< 5.00	6.56
N#Cc1c(SCC2COC2)nc(N2CC(O)C2)c(C#N)c1-c1ccc(OCCO)cc1 [Compound 274]	< 5.00	7.12
N#Cc1c(SCc2cccnc2)nc(N2CC(O)C2)c(C#N)c1-c1ccc(OC(F)(F)CO)cc1 [Compound 261]	< 5.00	< 5.00
COC1CC(Oc2ccc(-c3c(C#N)c(N)nc(SCC4CCOC4)c3C#N)cc2)C1 (centres unmarked) [Compound 321]	< 5.00	< 5.00
COCCOc1ccc(-c2c(C#N)c(SCc3cncnc3)nc(N3CCC3)c2C#N)cc1 [Compound 30]	< 5.00	5.51
CC(O)COc1ccc(-c2c(C#N)c(SCc3cccnc3)nc(N3CCC3)c2C#N)cc1 (centres unmarked) [Compound 53, 2-(azetidin-1-yl)-4-[4-(2-hydroxypropoxy)phenyl]-6-(3-pyridylmethylsulfanyl)-pyridine-3,5-dicarbonitrile]	9.15	8.14
COC1CC(Oc2ccc(-c3c(C#N)c(N)nc(SCC4COC4)c3C#N)cc2)C1 (centres unmarked) [Compound 323]	< 5.00	6.64
N#Cc1c(N)nc(SC2CCOCC2)c(C#N)c1-c1ccc(OCCO)cc1 [Compound 32]	< 5.00	6.05
CNC(=O)CSc1nc(N)c(C#N)c(-c2ccc(OCCO)cc2)c1C#N [Compound 139]	8.35	7.06
N#Cc1c(OCC2COC2)nc(N2CCC2)c(C#N)c1-c1ccc(OC2COC2)cc1 [Compound 287, 2-(azetidin-1-yl)-6-(oxetan-3-ylmethoxy)-4-(4-(oxetan-3-yloxy)phenyl)pyridine-3,5-dicarbonitrile]	< 5.00	6.09
N#Cc1c(SCCO)nc(N2CCCC2)c(C#N)c1-c1ccc(OCCO)cc1 [Compound 95]	6.34	6.56

Compound	pEC50 (human A2B)	pEC50 [1]
N#Cc1c(N)nc(OCC2CCCOC2)c(C#N)c1-c1ccc(OC2COC2)cc1 (centres unmarked) [Compound 300, 2-Amino-4-(4-(oxetan-3-yloxy)phenyl)-6-((tetrahydro-2H-pyran-3-yl)methoxy)pyridine-3,5-dicarbonitrile]	< 5.00	5.94
COCCOc1ccc(-c2c(C#N)c(SCC3COC3)nc(N3CCC3)c2C#N)cc1 [Compound 62]	≤ 5.00	6.46
N#Cc1c(SCc2cccnc2)nc(N2CC(F)(F)C2)c(C#N)c1-c1ccc(OCCOC(F)F)cc1 [Compound 264]	< 5.00	< 5.00
N#Cc1c(SCc2cccnn2)nc(C2CC2)c(C#N)c1-c1ccc(OCCOC(F)F)cc1 [Compound 239]	< 5.00	6.08
COCCOc1ccc(-c2c(C#N)c(N)nc(SCc3cccnn3)c2C#N)cc1 [Compound 195]	< 5.00	8.01
N#Cc1c(N)nc(SCC2CCOC2)c(C#N)c1-c1ccc(OC2CCOC2)cc1 (centres unmarked) [Compound 218]	< 5.00	6.45
N#Cc1c(N)nc(SCC2(F)COC2)c(C#N)c1-c1ccc(OCCO)cc1 [Compound 320]	< 5.00	6.64
COCCOc1ccc(-c2c(C#N)c(SCc3ccccn3)nc(N3CC(F)C3)c2C#N)cc1 [Compound 250]	< 5.00	7.48
N#Cc1c(N)nc(SCC2CCO2)c(C#N)c1-c1ccc(OCCO)cc1 (centres unmarked) [Compound 110]	6.75	6.60
N#Cc1c(SCc2cccnc2)nc(N2CCCC2)c(C#N)c1-c1ccc(OCCO)cc1 [Compound 114]	7.74	8.12
N#Cc1c(SCc2cnccn2)nc(N2CCC2)c(C#N)c1-c1ccc(OCCO)cc1 [Compound 6]	6.67	6.23
CNC(=O)CSc1nc(N2CCC2)c(C#N)c(-c2ccc(OCCOC)cc2)c1C#N [Compound 78]	< 5.00	6.19
CN(C)c1nc(SCC2COC2)c(C#N)c(-c2ccc(OC3COC3)cc2)c1C#N [Compound 222]	< 5.00	7.49
COCCSc1nc(N)c(C#N)c(-c2ccc(OCCO)cc2)c1C#N [Compound 151]	7.55	7.21
N#Cc1c(SCc2cccnc2)nc(C2CC2)c(C#N)c1-c1ccc(OCCO)cc1 [Compound 45, 2-Cyclopropyl-4-[4-(2-hydroxyethoxy)phenyl]-6-(3-pyridylmethylsulfanyl)-pyridine-3,5-dicarbonitrile]	8.09	7.46
N#Cc1c(N)nc(SCC2COC2)c(C#N)c1-c1ccc(OC2COC2)cc1 [Compound 25]	< 5.00	8.96
N#Cc1c(N)nc(SCCC(F)(F)F)c(C#N)c1-c1ccc(OC2CCCOC2)cc1 (centres unmarked) [Compound 325]	< 5.00	< 5.00
N#Cc1c(SCCO)nc(N2CCC2)c(C#N)c1-c1ccc(OCCO)cc1 [Compound 90]	6.06	6.46
N#Cc1c(N)nc(SCC2CCOC2)c(C#N)c1-c1ccc(OCCO)cc1 (centres unmarked) [Compound 28]	< 5.00	7.28
COCCOc1ccc(-c2c(C#N)c(C)nc(SCCC(F)(F)F)c2C#N)cc1 [Compound 47]	7.44	< 5.00
CNc1nc(SCC2COC2)c(C#N)c(-c2ccc(OC3COC3)cc2)c1C#N [Compound 314]	< 5.00	8.29
Cc1ccc(CSc2nc(N3CCC3)c(C#N)c(-c3ccc(OCCO)cc3)c2C#N)cn1 [Compound 69]	7.58	6.70
N#Cc1c(SCc2cccnc2)nc(N2CCC2)c(C#N)c1-c1ccc(OCCO)cc1 [Compound 116]	8.41	8.54
